Test results published in PubChem BioAssay AID266 (DTP/NCI, 2004).
Values joined by “and” are separate entries in the source; they are usually repeats but may differ in a detail not shown here. Identical values can stand only once. Records with an inconclusive call do not appear.

Tested on: Nude mice, LX-1 lung xenograft intrarenal, tumor weight T/C
Experiment: NCI In Vivo Anticancer Drug Screen. Data for tumor model Human Lung LX-1 Xenograft (intrarenal inoculation) in NU/NU BALB/C (nude) mice
Details: endpoint: mean tumor weight change, higher = larger tumour
Method: The antitumor activity of compounds was measured in mice bearing transplantable tumors. Survival or tumor size were measured and the results are expressed as the measurement made in the treated group (T) divided by the measurement made in the vehicle treated control group (C). The tumor model used in this assay is Human Lung LX-1 Xenograft (intrarenal inoculation) in NU/NU BALB/C (nude) mice

C[Si](C)(C)O/C=C1\CCCCC1=O
T/C (dose: 100.0 mg/kg/injection, schedule: Q04DX003 (sc), vehicle: saline with Tween-80): 95 % of control
T/C (dose: 200.0 mg/kg/injection, schedule: Q04DX003 (sc), vehicle: saline with Tween-80): 92 % of control

CCCCCn1c(C)cc(/C=C\c2ccc3cc(C)ccc3[n+]2C)c1C
T/C (dose: 0.25 mg/kg/injection, schedule: Q01DX010 (sc), vehicle: Klucel (hydroxypropylcellulose) (HPC)): 214 % of control
T/C (dose: 1.0 mg/kg/injection, schedule: Q01DX010 (sc), vehicle: Klucel (hydroxypropylcellulose) (HPC)): 212 % of control
T/C (dose: 2.0 mg/kg/injection, schedule: Q01DX010 (sc), vehicle: Klucel (hydroxypropylcellulose) (HPC)): 119 % of control

CCOC(=O)c1c[nH]c2oc(/C=N/N3CC(CN4CCOCC4)OC3=O)cc2c1=O (centres undefined)
T/C (dose: 50.0 mg/kg/injection, schedule: Q01DX010 (sc), vehicle: saline): 81 % of control
T/C (dose: 200.0 mg/kg/injection, schedule: Q01DX010 (sc), vehicle: saline): 118 % of control

O=C1NC(=O)NC(C(=O)O)N1
T/C (dose: 100.0 mg/kg/injection, schedule: Q04DX003 (sc), vehicle: Klucel (hydroxypropylcellulose) (HPC)): 87 % of control
T/C (dose: 200.0 mg/kg/injection, schedule: Q04DX003 (sc), vehicle: Klucel (hydroxypropylcellulose) (HPC)): 98 % of control
T/C (dose: 400.0 mg/kg/injection, schedule: Q04DX003 (sc), vehicle: Klucel (hydroxypropylcellulose) (HPC)): 106 % of control

O=C(CCCN1CCC(C(O)c2ccc(F)cc2)CC1)c1ccc(F)cc1 (centres undefined)
T/C (dose: 12.5 mg/kg/injection, schedule: Q04DX003 (ip), vehicle: saline with Tween-80): 64 % of control
T/C (dose: 25.0 mg/kg/injection, schedule: Q04DX003 (ip), vehicle: saline with Tween-80): 68 % of control
T/C (dose: 50.0 mg/kg/injection, schedule: Q04DX003 (ip), vehicle: saline with Tween-80): 69 % of control

CC(Oc1ccccc1-c1ccccc1)C(=O)N(C)C (centres undefined)
T/C (dose: 600.0 mg/kg/injection, schedule: Q04DX003 (sc), vehicle: saline with Tween-80): 100 % of control
T/C (dose: 1200.0 mg/kg/injection, schedule: Q04DX003 (sc), vehicle: saline with Tween-80): 116 % of control
T/C (dose: 2400.0 mg/kg/injection, schedule: Q04DX003 (sc), vehicle: saline with Tween-80): 107 % of control

O=NN(CCCl)C(=O)NC1CCC(=O)NC1=O (centres undefined)
T/C (dose: 1.56 mg/kg/injection, schedule: Q01DX010 (sc), vehicle: saline with Tween-80): 25 % of control
T/C (dose: 3.13 mg/kg/injection, schedule: Q01DX010 (sc), vehicle: saline with Tween-80): 12 % of control
T/C (dose: 5.2 mg/kg/injection, schedule: Q04DX003 (sc), vehicle: saline with Tween-80): 58 % of control
T/C (dose: 6.25 mg/kg/injection, schedule: Q01DX010 (sc), vehicle: saline with Tween-80): 1 % of control
T/C (dose: 10.4 mg/kg/injection, schedule: Q04DX003 (sc), vehicle: saline with Tween-80): 3 % of control
T/C (dose: 12.5 mg/kg/injection, schedule: Q01DX010 (sc), vehicle: saline with Tween-80): -100 % of control
T/C (dose: 20.8 mg/kg/injection, schedule: Q04DX003 (sc), vehicle: saline with Tween-80): -47 % of control

CCC12C[N+]3([O-])CCc4c([nH]c5ccccc45)C(C(=O)OC)(c4cc5c(cc4OC)N(C)C4C(O)(C(=O)OC)C(OC(C)=O)C6(CC)C=CCN7CCC54C76)CC(C3)C1O2 (centres undefined)
T/C (dose: 40.0 mg/kg/injection, schedule: Q04DX003 (sc), vehicle: water): 64 % of control
T/C (dose: 80.0 mg/kg/injection, schedule: Q04DX003 (sc), vehicle: water): 86 % of control
T/C (dose: 160.0 mg/kg/injection, schedule: Q04DX003 (sc), vehicle: water): 93 % of control
T/C (dose: 320.0 mg/kg/injection, schedule: Q04DX003 (sc), vehicle: water): 93 % of control

CCOC(=O)N(C)N=NC
T/C (dose: 7.5 mg/kg/injection, schedule: Q04DX003 (ip), vehicle: saline): 57 % of control
T/C (dose: 15.0 mg/kg/injection, schedule: Q04DX003 (ip), vehicle: saline): 51 % of control
T/C (dose: 60.0 mg/kg/injection, schedule: Q04DX003 (ip), vehicle: saline): 14 % of control and 24 % of control

Nc1ccn([C@@H](C=O)O[C@@H](C=O)CO)c(=O)n1
T/C (dose: 200.0 mg/kg/injection, schedule: Q04DX003 (sc), vehicle: saline): 108 % of control

OCC(O)C(O)C(O)C(O)CO (centres undefined)
T/C (dose: 75.0 mg/kg/injection, schedule: Q04DX003 (ip), vehicle: saline): 108 % of control
T/C (dose: 600.0 mg/kg/injection, schedule: Q04DX003 (ip), vehicle: saline): 109 % of control
T/C (dose: 1200.0 mg/kg/injection, schedule: Q04DX003 (ip), vehicle: saline): 94 % of control

CC[C@@]1(O)C[C@H](OC2CC(N(C)C)C(OC3CC(O)C(OC4CCC(=O)C(C)O4)C(C)O3)C(C)O2)c2c(cc3c(c2O)C(=O)c2c(O)cccc2C3=O)[C@H]1C(=O)OC (some centres undefined)
T/C (dose: 1.0 mg/kg/injection, schedule: Q01DX010 (sc), vehicle: water): 36 % of control
T/C (dose: 1.66 mg/kg/injection, schedule: Q04DX003 (sc), vehicle: water): 63 % of control
T/C (dose: 2.0 mg/kg/injection, schedule: Q01DX010 (sc), vehicle: water): 6 % of control
T/C (dose: 3.33 mg/kg/injection, schedule: Q04DX003 (sc), vehicle: water): 60 % of control
T/C (dose: 6.65 mg/kg/injection, schedule: Q04DX003 (sc), vehicle: water): 18 % of control
